Source: patent US12239650B2, “Compounds for treating and preventing net associated complications” (The Australian National University, priority 2019, dated 2025)

What was measured:
[1] = Rat cardiac ischemia reperfusion injury model; assay type: in vivo; settings: rats, 30 mg kg^−1 into left ventricle 5 min prior to reperfusion, FIG. 7c
Text: Rat cardiac ischemia reperfusion injury model. The method used is based on a combination of previously published procedures (Takada, Y., Hashimoto, M., Kasahara, J., Aihara, K. & Fukunaga, K. Cytoprotective effect of sodium orthovanadate on ischemia/reperfusion-induced injury in the rat heart involves Akt activation and inhibition of fodrin breakdown and apoptosis. J Pharmacol Exp Ther 311, 1249-1255 (2004); and Hale, S. L., Dae, M. W. & Kloner, R. A. Hypothermia during reperfusion limits ‘no-reflow’ injury in a rabbit model of acute myocardial infarction. Cardiovasc Res 59, 715-722 (2003)). Male Wistar rats were anaesthetized with isofluorane, intubated via tracheostomy and ventilated with a tidal volume of 1 ml 150 g^−1 and a respiratory rate of 65 breaths min^−1. Supplemental oxygen was delivered at a FiO2 of ˜30%. […]
At the conclusion of reperfusion (30 min), Thioflavin S (1 ml 200 g^−1 of body weight) was slowly injected into the lumen of the left ventricle, to define the territory of microvascular obstruction (MVO) within the ischemic zone (IZ). The IZ territory was determined by the re-occlusion of the atraumatic snare and infusion of blue microspheres into the left ventricle (Unisperse Blue, BASF), distributed within solutions via ultrasonication using a CD-6800 (Unisonics) sonicator. […] Planimetry (Image J, Freeware) was used to quantify the areas of the IZ, MVO and necrosis.

histones [2] = assay: Lipid bilayer assay (artificial lipid bilayers exposed to histones); settings: for Average bilayer lifetime: histones alone 5.7±1.2, control 46±4; for Incidence of rapid bilayer rupture: within 0.3-0.5 min of histone addition, histones alone 28%
Protocol: Lipid bilayer assays. Artificial lipid bilayers, prepared as previously described (Rebbeck, R. T. et al. The beta(1a) subunit of the skeletal DHPR binds to skeletal RyR1 and activates the channel via its 35-residue C-terminal tail. Biophys J 100, 922-930 (2011).), separated symmetrical 150 mM or 250 mM KCl (pH ˜5.5) solutions. Histones (1 μM, 15.2 μg ml^−1) were added to bilayers alone or after 0.5-3 h incubation with 10 μM CBS (3.5 μg ml^−1) or 10 μM MTS (5.1 μg ml^−1) at ˜20° C. Current was recorded continuously after histone addition until the bilayers broke or the experiment was terminated.

[3] = test system: histone-induced platelet aggregation; assay: Histone-induced aggregation of isolated platelets; assay type: cell-based, human; settings: FIG. 4b; for Inhibition of histone-induced platelet aggregation: histones 150 μg/mL, isolated platelets
Protocol: In vitro platelet aggregation and degranulation assays. For aggregation studies platelets were isolated from human whole blood collected into Na-citrate vacutainers through 2-step centrifugation at room temperature (200×g for 20 min then the platelet-rich plasma 800×g for 15 min), the platelet pellet resuspended in Hank's balanced salt solution containing calcium and magnesium and histones added and incubated in the presence/absence of compounds at the concentrations of each as indicated. Samples were assessed for degree of platelet aggregation after 15 min exposure to histones by flow cytometry using the characteristic log FSC versus log SSC identification of platelets, with increases in the geometric mean of log FSC indicative of platelet aggregation.

histones [4] = assay: Murine histone-induced deep vein thrombosis (DVT) model; assay type: in vivo; settings: mice, histones 10 mg kg^−1 i.v., compound 50 mg kg^−1 i.v., 48 h, FIG. 6c
Protocol: Murine deep vein thrombosis (DVT) model. The procedure used is largely as previously described (Brill, A. et al. Neutrophil extracellular traps promote deep vein thrombosis in mice. J Thromb Haemost 10, 136-144 (2012)). […] The peritoneum and skin were closed following which all mice received an i.v. injection of histones via the tail vein (10 mg kg^−1) or an equivalent volume of saline followed 5 min later by an i.v. injection of test compounds (50 mg kg^−1) or saline. Mice were monitored for 48 h after which they were re-anesthetized, re-opened and any thrombi that had developed distal to the IVC stenosis were removed for analysis. Sham operated control animals received laparotomy and 90% ligation of the IVC, however the ligation was removed immediately after occlusion of the IVC.

[5] = Rat caecal ligation and puncture (CLP) assay for sepsis; assay type: in vivo; settings: for Mortality in CLP model of sepsis: rats n=8/group, 50 mg kg^−1 i.p. 5 min pre-CLP and 5, 10, 15 h post-op, 20 h, FIG. 7a; for High ALT and creatinine levels (liver and kidney damage) in CLP rats: 50 mg kg^−1 i.p., versus untreated group, FIG. 7b
Protocol: Rat caecal ligation and puncture (CLP) assay for sepsis. […] Test compounds (50 mg kg^−1) dissolved in saline or an equivalent volume of saline only (Control cohort) were administered i.p. 5 min pre-CLP and 5, 10 and 15 h post-op until cessation of the experiment at 20 h. Sham-CLP rats underwent the same procedure, however, the caecum was not ligated or punctured and these rats received saline at the same times as above. At the conclusion of the experimental time period (20 h) or when morbidity required ethical euthanasia, the rats were anaesthetized and blood was collected via cardiac puncture into EDTA for subsequent analysis of liver (ALT) and kidney (creatinine) function by the Department of Pathology, The Canberra Hospital.

[6] = histones 1 μM with 10 μM compound

Row | SMILES | Reduction of area of microvascular obstruction and myocardial necrosis in the ischemic zone [1] | Average bilayer lifetime (histones [2]; [6]) | Incidence of rapid bilayer rupture (histones [2]) | Inhibition of histone-induced platelet aggregation [3] | Inhibition of histone-mediated DVT (histones [4]) | Mortality in CLP model of sepsis [5] | High ALT and creatinine levels (liver and kidney damage) in CLP rats [5] | Bilayer lifetime compared with control lifetimes (histones [2]; [6]) | Relative activity in inhibiting histone-induced platelet aggregation [3]
1 | O=S(=O)(O)OC[C@H]1O[C@@H](O[C@H]2[C@H](OS(=O)(=O)O)[C@@H](OS(=O)(=O)O)C(OS(=O)(=O)O)O[C@@H]2COS(=O)(=O)O)[C@H](OS(=O)(=O)O)[C@@H](OS(=O)(=O)O)[C@@H]1OS(=O)(=O)O (stereo partly shown) [CBS, cellobiose per-O-sulfate] | 50% | 18 ± 4 min | 5.8% | completely inhibited | almost totally inhibited | no mortality | not seen |  | 
2 | O=S(=O)(O)OC[C@H]1O[C@H](O[C@H]2[C@H](OS(=O)(=O)O)[C@@H](OS(=O)(=O)O)C(OS(=O)(=O)O)O[C@@H]2COS(=O)(=O)O)[C@H](OS(=O)(=O)O)[C@@H](OS(=O)(=O)O)[C@@H]1O[C@H]1O[C@H](COS(=O)(=O)O)[C@@H](OS(=O)(=O)O)[C@H](OS(=O)(=O)O)[C@H]1OS(=O)(=O)O (stereo partly shown) [MTS, maltotriose per-O-sulfate] | totally ineffectual | 36 ± 5 min | 2.5% | completely inhibited | almost totally inhibited | only one death | only partially reduced | not significantly different from the control lifetimes | most active
